Publication PMC2832868 (Journal of Medicinal Chemistry, 2010)
Read-outs that look alike come from different tables or passages of the source. Marks after values point to notes of the source that are not given here.

What was measured:
[1] = mice, cited from earlier work
[2] = Solubility in aqueous buffer; type: physicochemical
Pharmacokinetics in mice = type: in vivo

Compound	Foral ([1]; oral administration of same dose (25 mg kg^−1)) [%]	Clp ([1]; plasma, IV dose 25 mg kg^−1) [L/h]	solubility (S) at pH 7 [2]	Foral (Pharmacokinetics in mice; oral administration of same dose (10 mg kg^−1))	drug levels following oral dosing (Pharmacokinetics in mice; oral dosing 10 mg/kg)
NC1(Cc2ccc(Cl)cc2)CCN(c2ncnc3[nH]ccc23)CC1 [Compound 2, 4-(4-chlorobenzyl)-1-(7H-pyrrolo[2,3-d]pyrimidin-4-yl)piperidin-4-amine]	8.5	0.33	negligible solubility	–	–
CC(C)(C)c1ccc(CC2(N)CCN(c3ncnc4[nH]ccc34)CC2)cc1 [Compound 10, 4-(4-tert-Butylbenzyl)-1-(7H-pyrrolo[2,3-d]pyrimidin-4-yl)piperidin-4-amine]	–	–	–	<1 ^c %	no measurable drug levels
